Test results from patent US20080070939A1, “LOCAL […] COMPOSITIONS CONTAINING DEXTROROTATORY MORPHINAN DERIVATIVES OR PHARMACEUTICALLY ACCEPTABLE SALTS THEREOF” (CHI MEI FOUNDATION HOSPITAL, priority 2006, published 2008).
Counter-ions that a name gives are not always drawn.

Legend:
Male Sprague-Dawley rats [1] = test: Spinal anesthetic effect (spinal blockade) after intrathecal injection in rats; format: in vivo; design: AUC of time-% PE curve, spinal blockade of motor function / AUC of time-% PE curve, spinal blockade of proprioception / AUC of time-% PE curve, spinal blockade of nociceptive reaction: unit not given beside the values
Procedure: Male Sprague-Dawley rats (weighing about 300 to 350 g); for each dose of each drug, n=6.
In brief, for preparation, the hairs on the back of each rat were shaved, and the shaved back was sterilized with iodine.
After three minutes, 50 μL of each of the tested drugs was injected via a 27-gauge needle attached to a 100-μL syringe (Hamilton, Reno, Nev.) into the intrathecal space between the fourth and fifth lumbar vertebrae. The development of spinal blockade was observed from the paralysis of the hind limbs of the rats.
The magnitude of nerve block (including blocking of motor function, proprioception, and nociceptive reaction) was expressed as the percentage of possible effect (hereinafter referred to as % PE), and the maximal value of % PE was expressed as the percentage of maximal possible effect (hereinafter referred to as % MPE).
Motor function was evaluated by measuring the extensor postural thrust of the right hind limbs of the rats using a digital platform balance (Mettler Toledo, Switzerland, model PB1502-S). To test the extensor postural thrust, the rat was held upright with the hind limb extended, so that the body weight of the rat was supported by the distal metatarsus and toes. The extensor postural thrust could be measured as the force of the right hind limb of the rat thrusting the platform balance.
A reduction in the force, resulting in extensor muscle tone, was considered as a motor deficit. A force less than 20 g (i.e., a weight of the “flaccid limb”) was considered absence of an extensor postural thrust or 100% motor block or 100% MPE.
Proprioception was evaluated based on resting posture and postural reactions (including tactile placing and hopping). First, the front half of the rat body and one of the hind limbs were lifted off the ground at the same time so that the rat was standing on one hind limb. Then, the rat was moved laterally, which normally evoked a prompt hopping response of the weight-bearing hind limb of the rat in the direction of movement so as to avoid falling. A predominantly proprioceptive block caused a delayed hopping followed by greater lateral hops. […] Functional deficits were classified into four grades: 3 (normal or 0% MPE), 2 (slightly impaired), 1 (severely impaired), and 0 (completely impaired or 100% MPE).
Nociceptive reaction was evaluated by the withdrawal reflex or vocalization elicited by the pinch of a skin fold over the back at 1 cm near the proximal part of the tail, the lateral metatarsus of the bilateral hind limbs, and the dorsal part of the mid-tail. At each testing time, only one pinch was given to each of the abovementioned four testing sites, and the time interval between stimulations at different sites was around 2 seconds. Nociceptive reactions were classified into five grades: 4 (normal or 0% MPE), 3 (25% MPE), 2 (50% MPE), 1 (75% MPE), and 0 (absent or 100% MPE).
The potency of each drug on spinal blockades was compared using ED50.
Duration was defined as the interval from injection of the tested drugs to complete recovery. The ED25, ED50 and ED75 obtained according to the SAS NLIN analysis in the preceding section “C. Potency evaluation” were used in this experiment.
Regarding the method of evaluating the effect of co-administration, dextromethorphan hydrobromide monohydrate was used as an example.
After the tests, the time of measurement of each drug and its corresponding % PE were plotted to obtain the time-% PE curves of each drug. The area under the curve (AUC) of time-% PE was calculated using the trapezoidal rule, and was used to evaluate the effect of the co-administration of the drugs.
Statistical software, SPSS for Windows® (version 10.0.7) was used. Data were represented as mean±SEM.

Male Sprague-Dawley rats [2] = test: Infiltrative cutaneous anesthesia (inhibition of cutaneous trunci muscle reflex, CTMR) after subcutaneous injection in rats; format: in vivo
Procedure: Male Sprague-Dawley rats (weighing about 200 to 250 g); for each dose of each drug, n=8.
In brief, hairs on the dorsal surface (about 10×10 cm^2) of the thoracolumbar region of the rat were shaved, and the shaved surface was sterilized with iodine for preparation. To reduce the number of animals used, the back of the rat was further divided into left and right parts. One drug was injected first at the right part. After a washout period of one week, another drug was injected at the left part.
0.6 mL of drug was injected subcutaneously under the dorsal surface of the thoracolumbar region of the rat using a 30-gauge needle attached to a syringe (Becton Drive, Franklin Lakes, USA). The subcutaneous injection would result in a circular elevation (i.e., a wheal) of the skin, about 2 cm in diameter. The elevation was marked with ink within 1 minute after injection.
CTMR refers to the reflex movement of the skin of the back caused by twitching of the lateral thoracispinal muscle in response to local dorsal cutaneous stimulation. Essentially, a von Frey filament (No.15; Somedic Sales AB, Sweden) to which a cut end of an 18-gauge needle was affixed was used to produce a standard nociceptive stimulus (strength: 19 g). Six pinpricks (at a frequency of 0.5-1 Hz) were applied to a single marked wheal during each test. […] For example, absence of any response to all of the 6 pinpricks was defined as a complete nociceptive block (i.e., 100% MPE).
The difference resided in that subcutaneous injections of ED25, ED50 and ED75 of the drugs were performed based on the method described in the section “A. Drug injection” of this example, and evaluation of the infiltrative cutaneous anesthetic effect was performed based on the method described in the section “B. Neurobehavioral evaluation” of this example.

[3] = Systemic safety indices: mortality 24 hours after intraperitoneal injection in rats; details: rat, in vivo, ip
Procedure: (§1) Essentially, each drug was injected intraperitoneally into the rats (n=8). The number of dead rats was observed after 24 hours, and the rate of mortality (%) was calculated. Thereafter, the doses of each drug and the relative mortality were plotted to obtain dose-mortality curves of the drugs. […] The safety index (LD50/ED50) of each drug was calculated using the LD50 thus obtained and the ED50 obtained in the section “C. Potency evaluation” of this example.

rats = test: as above
Procedure: as §1

[4] = intrathecal, rats, 2 ED50 when administered independently, ED50 of each drug when co-administered, mean ± SEM
[5] = spinal blockade, mean of motor function, proprioception and nociceptive reaction, intrathecal, rats
[6] = infiltrative cutaneous anesthesia, rats, 2ED50 when administered independently, ED50 for co-administration, mean ± SEM
[7] = infiltrative cutaneous anesthesia, subcutaneous injection, rats
[8] = subcutaneous dose of ED75, rats, mean±SEM

Q: Which “% MPE of spinal blockades of motor function, proprioception and nociceptive reaction (range over the three functions)” value (Male Sprague-Dawley rats [1]; intrathecal dose of ED75, rats) does the source give for `COc1ccc2c(c1)[C@]13CCCC[C@@H]1[C@H](C2)N(C)CC3` [Dextromethorphan hydrobromide monohydrate] here?
A: 66-80 % MPE

Q: And the “duration of spinal blockades of motor function, proprioception and nociceptive reaction (range over the three functions)” value (Male Sprague-Dawley rats [1]; intrathecal dose of ED75, rats)?
A: 22 to 40 min

Q: What about the “effect of co-administration with bupivacaine hydrochloride on spinal blockade” value (Male Sprague-Dawley rats [1]; intrathecal, rats, ED50 of each drug) of the same compound?
A: additive effect

Q: What about the “AUC of time-% PE curve, spinal blockade of motor function” value (Male Sprague-Dawley rats [1]; [4]) of the same compound?
A: 953 ± 114

Q: And the “AUC of time-% PE curve, spinal blockade of nociceptive reaction” value (Male Sprague-Dawley rats [1]; [4])?
A: 4131 ± 385

Q: What about the “AUC of time-% PE curve, spinal blockade of proprioception” value (Male Sprague-Dawley rats [1]; [4]) of the same compound?
A: 1985 ± 219

Q: And the “Motor function ED50 (95% CI)” value (Male Sprague-Dawley rats [1]; spinal blockade of motor function, intrathecal injection, rats)?
A: 0.56 (0.54–0.59) mg

Q: And the “Nociceptive reaction ED50 (95% CI)” value (Male Sprague-Dawley rats [1]; spinal blockade of nociceptive reaction, intrathecal injection, rats)?
A: 0.46 (0.43–0.49) mg

Q: And the “Proprioception ED50 (95% CI)” value (Male Sprague-Dawley rats [1]; spinal blockade of proprioception, intrathecal injection, rats)?
A: 0.48 (0.45–0.52) mg

Q: What about the “Mean value ED25” value (Male Sprague-Dawley rats [1]; [5]) of the same compound?
A: 0.39 mg

Q: What about the “Mean value ED50” value (Male Sprague-Dawley rats [1]; [5]) of the same compound?
A: 0.50 mg

Q: What about the “Mean value ED75” value (Male Sprague-Dawley rats [1]; [5]) of the same compound?
A: 0.65 mg

Q: And the ED50 (Male Sprague-Dawley rats [2]; Rattus norvegicus, sc, infiltrative cutaneous anesthesia, subcutaneous injection, rats, read-out: ED50 (95% CI))?
A: 2.05 mg/kg

Q: What about the “% MPE” value (Male Sprague-Dawley rats [2]; [6]) of the same compound?
A: 67 ± 8 % MPE

Q: And the “AUC (% min.)” value (Male Sprague-Dawley rats [2]; [6])?
A: 2300 ± 440 % min.

Q: And the “Duration” value (Male Sprague-Dawley rats [2]; [6])?
A: 58 ± 4 min

Q: What about the ED25 (Male Sprague-Dawley rats [2]; [7]) of the same compound?
A: 1.35 mg/kg

Q: What about the ED75 (Male Sprague-Dawley rats [2]; [7]) of the same compound?
A: 3.11 mg/kg

Q: And the “duration of cutaneous anesthesia compared with lidocaine hydrochloride” value (Male Sprague-Dawley rats [2]; same effective doses (ED25, ED50 or ED75), rats)?
A: longer duration

Q: And the “% MPE of cutaneous nociceptive block” value (Male Sprague-Dawley rats [2]; [8])?
A: 71±8 % MPE

Q: What about the “duration of cutaneous nociceptive block” value (Male Sprague-Dawley rats [2]; [8]) of the same compound?
A: approximately 50±5 minutes

Q: And the “effect of co-administration with lidocaine hydrochloride on cutaneous nociceptive blockade” value (Male Sprague-Dawley rats [2]; subcutaneous, rats, ED50 of each drug)?
A: additive effect

Q: And the LD50 at 24 h [3]?
A: 138 mg/kg

Q: What about the “systemic safety index relative to that of lidocaine hydrochloride” value (rats; LD50/ED50, rats) of the same compound?
A: 2.4 times

Q: What about the “safety index LD50/ED50” value (rats; LD50 intraperitoneal / ED50 of infiltrative cutaneous anesthesia, rats) of the same compound?
A: 67.3
